# Measured values from patent US7388002B2, “Nucleosides, preparation thereof and use as inhibitors of RNA viral polymerases” (BioCryst Pharmaceuticals, Inc., priority 2001, dated 2008).
# Test system: stably HCV RNA-replicating cell line, AVA5
# Assay: Antiviral Activity (HCV Replicon Assay)
# Type: cell-based
# Conditions: intracellular HCV RNA levels (blot hybridization, normalized to B-actin RNA) in AVA5 cells (Huh7-derived), compound once daily for three days, read 24 hours after last dose
# Procedure: HCV NS5B Polymerase Assay
# Antiviral activity of the test compounds is assessed (Okuse et al., Antiviral Res. 2005, 65, 23-34) in the stably HCV RNA-replicating cell line, AVA5, derived by transfection of the human hepatoblastoma cell line, Huh7 (Blight et al., Sci. 2000, 290, 1972). Compounds are added to dividing cultures once daily for three days. Media is changed with each addition of compound. Cultures generally start the assay at 30-50% confluence and reach confluence during the last day of treatment. Intracellular HCV RNA levels and cytotoxicity are assessed 24 hours after the last dose of compound.
# Triplicate cultures for HCV RNA levels (on 48-well and 96-well plates) and cytotoxicity (on 96-well plates) are used. A total of six untreated control cultures, and triplicate cultures treated with α-interferon and ribavirin serve as positive antiviral and toxicity controls.
# Intracellular HCV RNA levels are measured using a conventional blot hybridization method in which HCV RNA levels are normalized to the levels of B-actin RNA in each individual culture (Okuse et al., Antivir. Res. 2005, 65, 23-34). Cytotoxicity is measured using a neutral red dye uptake assay (Korba and Gerin, Antivir. Res. 1992, 19, 55). HCV RNA levels in the treated cultures are expressed as a percentage of the mean levels of RNA detected in untreated cultures.
row,Structure (SMILES),% Inhibition at 10 μM
1,"CC(C)(C)OC(=O)COP(=O)(COCCC(CN)n1cnc2c(N)ncnc21)OCC(=O)OC(C)(C)C (racemic) [Compound 34d, (±)-9-[(1-Aminomethyl)(3-(di-tert-butyloxycarbonylmethylphosphono)methoxy)propyl]-adenine]",60%
2,"CC(C)(C)OC(=O)COP(=O)(COCCC(CCO)n1cnc2c(N)ncnc21)OCC(=O)OC(C)(C)C (racemic) [Compound 34e, (±)-9-[(1-(2-Hydroxy)ethyl)(3-(di-tert-butyloxycarbonylmethylphosphono)methoxy)propyl]-adenine]",41%
3,"CC(O)CC(COCP(=O)(OCOC(=O)C(C)(C)C)OCOC(=O)C(C)(C)C)n1cnc2c(N)ncnc21 (racemic) [Compound 56f, (±)-9-[1-[(Di-tert-butylcarbonyloxymethylphosphonomethoxy)methyl][(3-hydroxy)butyl]adenine]",62%
4,"CC(C)(C)OC(=O)COP(=O)(COCCC(CO)n1cnc2c(NC3CCCC3)ncnc21)OCC(=O)OC(C)(C)C (racemic) [Compound 73k, (±)-9-[(1-Hydroxymethyl)(3-(di-tert-butyloxycarbonylmethylphosphono)methoxy)propyl]-6-cyclopentylaminopurine]",36%
5,"CC(C)(C)OC(=O)COP(=O)(COCCC(CO)n1cnc2c(-c3ccccc3)ncnc21)OCC(=O)OC(C)(C)C (racemic) [Compound 76a, (±)-9-[(1-Hydroxymethyl)(3-(di-tert-butyloxycarbonylmethylphosphono)methoxy)propyl]-6-phenylpurine]",35%
6,"CC(C)(C)OC(=O)COP(=O)(COCCC(CO)n1cnc2c(-c3ccsc3)ncnc21)OCC(=O)OC(C)(C)C (racemic) [Compound 76b, (±)-9-[(1-Hydroxymethyl)(3-(di-tert-butyloxycarbonylmethylphosphono)methoxy)propyl]-6-(3-thiophenyl)purine]",18%
7,"CC(O)C(COCP(=O)(OCC(=O)OC(C)(C)C)OCC(=O)OC(C)(C)C)n1cnc2c(-c3ccccc3)ncnc21 (racemic) [Compound 79a, (±)-9-[(1-Hydroxyethyl)(3-(di-tert-butyloxycarbonylmethylphosphono)methoxy)ethyl]-6-phenylpurine]",48%
8,"C=C(CCOCP(=O)(OCC(=O)OC(C)(C)C)OCC(=O)OC(C)(C)C)n1cnc2c(N)ncnc21 [Compound 34h, (±)-9-[(1-Methylene)(3-(di-tert-butyloxycarbonylmethylphosphono)methoxy)propyl]-adenine]",35%
